Experimental data taken from US10450549B2, “Aryloxyphenoxypropionate tolerance in turfrgass species and use of AAD1 as a selectable marker” (Dow AgroSciences, LLC, priority 2004, dated 2019).

How the values were obtained:
[1] = system: transformed-control line containing PAT and Cry1F; experiment: Foliar-applied auxinic herbicides on control (PAT/Cry1F, wildtype) Arabidopsis, % injury 14 DAT; assay type: in vivo, Arabidopsis thaliana; conditions: PatCry1f - Control
Procedure, shortened: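 Homozygous T4 AAD1 (v3) Arabidopsis (line AAD1.01.315.076) and a PAT/Cry1F transformed control were grown in pots and track-sprayed foliarly at 187 L/ha with herbicides formulated in 200 mM Hepes pH 7.5. Injury was rated 14 days after treatment, with 3-4 replicates averaged over two experiments.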

callus event 3404-006 = experiment: Dose response of AAD1 (v3) expressing maize callus event; assay type: cell-based; conditions: haloxyfop (Gallant Super) up to 400 nM
Experimental: Non-transformed donor Hi-II cell lines were pooled together, […]-treated without DNA, filtered onto GN6 medium at the rate of 6 ml per filter, and allowed to callus for 2-3 weeks at 28° C. Approximately 200 mg of callused suspension tissue was transferred per treatment to selection media in 60×20 mm plates containing 30, 100 or 300 nM R-haloxyfop acid. Three replicates were used per concentration. A control medium containing 1 mg/L bialaphos (from Herbiace commercial formulation, Meiji Seika, Japan), GN6 (1H), was also included for comparison. Callus was removed after 2 weeks, weighed, and transferred to fresh media of the same concentration for another 2 weeks. After a total of 4 weeks elapsed time, tissue was removed, weighed a final time, and then discarded.
A smaller subset of these events was assessed in dose-response studies in comparison to a non-transformed control. A range of concentrations of haloxyfop (from Gallant Super formulation), up to 400 nM, were tested.

[2] = system: AAD1-transformed T0 ‘Shamrock’ Kentucky bluegrass events; experiment: Haloxyfop-R-methyl postemergence on AAD1 (pDAB3878) T0 Shamrock Kentucky bluegrass, visual % injury; assay type: in vivo; conditions: for injury of event KGB51: 560 g ae/ha
Experimental: ‘Shamrock’ Kentucky bluegrass T0 pDAB3878 events were maintained vegetatively through division of the crowns and replanting the clonal pieces into fresh growth medium. Clonally propagated plants were maintained by periodic “mowing” of vegetative tissues.
A growth medium was prepared by mixing Promix® and sand in a 2 to 1 ratio. The medium was contained in plastic pots with a surface area of 84.6 square centimeters (cm^2). When required to maintain plant health, a fungicide, insecticide, and/or other chemical or physical treatment was applied to stock plants. The plants were maintained in a greenhouse with an approximate 14 hour photoperiod which was maintained at 24-27° C. during the day and 22-25° C. during the night. Nutrients (Peters Excel® 15-5-15 5-Ca 2-Mg and iron chelate) were applied in the irrigation solution as needed and water was added on a regular basis. Supplemental lighting was provided with overhead metal halide 1000-Watt lamps when PAR dropped below 500.
The selected T0 plants were sprayed with haloxyfop-R-methyl (Gallant Super®, DOW AGROSCIENCES, INC.) at rates ranging from 140 to 560 g ae/ha. […] This rate would also control susceptible monocot weed species. Measured amounts were placed individually in 25 mL glass vials and dissolved in a 12 mL volume of 1.0% (v/v) Agri-Dex® Crop Oil Concentrate (COC).
(§1) Spray solutions were applied to the plant material with an overhead Mandel™ track sprayer equipped with a 8002E nozzles calibrated to deliver 187 L/ha over an application area of 0.503 square meters (m^2) at a spray height of 18 inches (46 cm) above average plant canopy height. Control plants were sprayed in the same manner with the COC blank.
The treated plants and control plants were placed in a greenhouse and watered by sub-irrigation to prevent wash-off of the test compounds. At various times after application, the condition of the test plants as compared with that of the untreated plants was determined visually and scored on a scale of 0 to 100 percent, where 0 corresponds to no injury or growth inhibition, and 100 corresponds to complete kill. Regenerated, non-transformed (NT) ‘Shamrock’ Kentucky bluegrass plants and/or seed-derived clonally propagated plants served as haloxyfop sensitive controls.

[3] = system: AAD1-transformed T0 2095-2 creeping bentgrass events; experiment: Quizalofop-p-ethyl postemergence on AAD1 (pDAB5042) creeping bentgrass line 2095-2; assay type: in vivo, Agrostis stolonifera
Experimental: Selected T0 plants were sprayed with quizalofop-p-ethyl (Assure II®, DUPONT, Wilmington, Del.) at rates ranging from 60 to 2,240 g ae/ha. […] This rate also controls susceptible monocot weed species. Measured amounts were placed individually in 25 mL glass vials and dissolved in a 4 mL volume of 1.0% (v/v) Agri-Dex® Crop Oil Concentrate (COC) from HELENA CHEMICAL (Collierville, Tenn.). Application solutions were prepared by serial dilution of the highest rate applied. One-half the volume of the highest rate stock solution (2 mL) was transferred to a clean 25 mL vial containing an equal volume of 1% COC and the diluted solution was mixed. Additional dilutions were prepared similarly by removing one-half the volume of the previous concentration (2 mL), and adding to an equal volume of 1% COC and mixing. When preparing the lowest concentration, the remaining one-half volume was discarded. All 2 mL stock solutions were further diluted by adding 10 mL aqueous mixture of 1.0% (v/v) COC, so that the final spray solutions were 12 mL in volume and contained 1.0% (v/v) COC.
as §1
The treated plants and control plants were placed in a greenhouse, and watered by sub-irrigation to prevent wash-off of the test compounds. At various times after application, the condition of the test plants as compared with that of the untreated plants was determined visually and scored on a scale of 0 to 100 percent (where 0 corresponds to no injury or growth inhibition and 100 corresponds to complete kill). Regenerated, non-transformed (NT) ‘Crenshaw’ or elite line 2905-2 creeping bentgrass plants and/or seed-derived clonally propagated plants served as quizalofop sensitive controls. […]

AAD1 (v3) rice plantlets = experiment: Rice tolerance testing with Assure II (sensitivity or resistance 10-14 DAT); assay type: in vivo, Oryza sativa L. japonica cv. Taipei 309; conditions: 140 g ae/ha
Experimental: This concentration corresponds to approximately 140 g ae/ha. Each plant was spayed in a fume hood at a distance of 8-12 inches with 6 full squirts of the sprayer directed so that the entire plant was covered with an equal portion of herbicide. Each squirt delivered approximately 100 μl solution to the plantlet. Once sprayed, plantlets were allowed to dry for one hour before being moved out of the fume hood.

SMILES: Nc1c(Cl)c(F)nc(OCC(=O)O)c1Cl [Fluroxypyr]
- Ave % Injury 14DAT ([1]; 50 g ae/ha foliar): 76%
- Ave % Injury 14DAT ([1]; 200 g ae/ha foliar): 85%
- Ave % Injury 14DAT ([1]; 800 g ae/ha foliar): 85%
- Ave % Injury 14DAT ([1]; 3200 g ae/ha foliar): 95%

SMILES: CC(Oc1ccc(Oc2ncc(C(F)(F)F)cc2Cl)cc1)C(=O)O (stereo not drawn) [haloxyfop]
- callus growth of event 3404-006 (callus event 3404-006): no significant reduction in callus growth
- mean injury, pDAB3878 Shamrock Kentucky bluegrass events ([2]; 140 and 560 g ae/ha, 11, 14 and 20 DAA): less than 15%
- injury of event KGB51 ([2]; 11 DAA): about 20%
- injury of event KGB51 ([2]; 14 DAA): ~30%
- injury of event KGB51 ([2]; 20 DAA): ~30%

SMILES: C[C@@H](Oc1ccc(Oc2cnc3cc(Cl)ccc3n2)cc1)C(=O)O [quizalofop]
- mean injury, pDAB5042 2095-2 events ([3]; 120, 480 and 960 g ae/ha, 22 to 50 DAA): less than 25%
- injury of 48 of the 53 individual 2095-2 events ([3]; 120 g ae/ha): ≤ 20%
- injury of four 2095-2 events ([3]; 120 g ae/ha): between about 25% and 35% injury
- Rating for sensitivity or resistance (AAD1 (v3) rice plantlets; Control rice plant): Dead
- Rating for sensitivity or resistance (AAD1 (v3) rice plantlets; rice plant 63-1A): No injury
- Rating for sensitivity or resistance (AAD1 (v3) rice plantlets; rice plant 63-1F): No injury
- Rating for sensitivity or resistance (AAD1 (v3) rice plantlets; rice plant 63-4B): No injury
- Rating for sensitivity or resistance (AAD1 (v3) rice plantlets; rice plant 63-4D): No injury
- Rating for sensitivity or resistance (AAD1 (v3) rice plantlets; rice plant 63-6C): Dead
